Each compound was assayed against MAPK14;MAPK11;MAPK12 (human) (UniProt Q16539) (assay: Inhibition of p38 Kinase Activity).

SMILES	IC50
CN(CC1CCC2CC1C2(C)C)c1nc(Nc2ccc3ncsc3c2)nc(N2CCN(S(C)(=O)=O)CC2)n1 (stereo not drawn)	< 10 µM
CN(C)c1nc(Nc2ccc3ncsc3c2)nc(NC(C)(C)Cc2ccccc2)n1	< 10 µM
c1ccc(C2CCCN(c3nc(Nc4ccc5ncsc5c4)nc(N4CCNCC4)n3)C2)cc1 (stereo not drawn)	< 10 µM
CNCCN(C)c1nc(NC[C@@H](C)c2ccccc2)nc(Nc2ccc3ncsc3c2)n1	< 10 µM
Cc1ccc(C(=O)Nc2ccccn2)cc1Nc1nc(N[C@H]2CCNC2)nc(N(C)CC(C)(C)C)n1	< 1 µM
Cc1ccc(-c2ncc[nH]2)cc1Nc1nc(N[C@@H]2CCNC2)nc(N(C)CC(C)(C)C)n1	< 1 µM
Cc1ccc(C(N)=O)cc1Nc1nc(NC2CCN(Cc3ccccc3)C2)nc(N(C)CC(C)C)n1 (stereo not drawn)	< 1 µM
COCCNC(=O)c1ccc(C)c(Nc2nc(N[C@H]3CCNC3)nc(N(C)CC(C)(C)C)n2)c1	< 1 µM
CNC(=O)c1ccc(C)c(Nc2nc(N[C@H]3CCN(Cc4ccccc4)C3)nc(N(C)CC(C)C)n2)c1	< 1 µM
Cc1ccc(C(N)=O)cc1Nc1nc(NCC23CC4CC(CC(C4)C2)C3)nc(N[C@H]2CCNC2)n1	< 1 µM
Cc1ccc(C(N)=O)cc1Nc1nc(O[C@H]2CCNC2)nc(N(C)CC(C)(C)C)n1	< 1 µM
Cc1ccc(C(N)=O)cc1Nc1nc(NCc2cccc3ccccc23)nc(N[C@@H]2CCNC2)n1	< 1 µM
COc1ccccc1NC(=O)c1ccc(C)c(Nc2nc(N[C@H]3CCNC3)nc(N(C)CC(C)(C)C)n2)c1	< 1 µM
CC1(C)[C@H]2CC[C@@H](CNc3nc(Cl)nc(Nc4ccc5ncsc5c4)n3)[C@@H]1C2	< 10 µM
Cc1ccc(C(N)=O)cc1Nc1nc(NC[C@@H]2CC[C@H]3C[C@H]2C3(C)C)nc(N[C@H]2CCNC2)n1	< 1 µM
Cc1ccc(C(N)=O)cc1Nc1nc(N[C@@H]2CCNC2)nc(N(C)C2CCCC2)n1	< 1 µM
CC(CNc1cc(N2CCOCC2)nc(Nc2ccc3ncccc3c2)n1)c1ccccc1 (stereo not drawn)	< 10 µM
CC(C)(Cc1ccccc1)Nc1nc(Nc2ccc3ncsc3c2)nc(N2CCNCC2)n1	< 10 µM
Cc1ccc(C(N)=O)cc1Nc1nc(NCC(C)(C)C)nc(N[C@H]2CCNC2)n1	< 1 µM

Results, then the compound that gave them:

IC50	SMILES
< 1 µM	CONC(=O)c1ccc(C)c(Nc2nc(N[C@H]3CCN(C(C)C)C3)nc(N(C)CC(C)(C)C)n2)c1
< 1 µM	Cc1ccc(C(N)=O)cc1Nc1nc(N[C@@H]2CCNC2)nc(OC[C@@H]2CC[C@H]3C[C@H]2C3(C)C)n1
< 1 µM	Cc1ccc(C(N)=O)cc1Nc1nc(N[C@@H]2CCN(C(C)C(F)(F)F)C2)nc(N(C)CC(C)(C)C)n1 (stereo partly drawn)
< 1 µM	Cc1ccc(-c2nnc[nH]2)cc1Nc1nc(N[C@@H]2CCNC2)nc(N(C)CC(C)(C)C)n1
< 1 µM	Cc1ccc(C(N)=O)cc1Nc1nc(NCC(C)c2ccccc2)nc(N[C@@H]2CCNC2)n1 (stereo partly drawn)
< 1 µM	Cc1cc2c(cc1Nc1nc(NCC(C)(C)C)nc(N[C@H]3CCNC3)n1)C(=O)NC2
< 1 µM	Cc1c(Cl)cc(C(N)=O)cc1Nc1nc(N[C@H]2CCNC2)nc(N(C)CC(C)C)n1
< 1 µM	Cc1ccc(C(N)=O)cc1Nc1nc(N[C@H]2CCNC2)nc(N(C)CC(C)(C)C)n1
< 1 µM	Cc1cc(Cl)c(C(N)=O)cc1Nc1nc(N[C@H]2CCNC2)nc(N(C)CC(C)(C)C)n1
